The values below come from ChEMBL document CHEMBL5576145, “Domoic Acid as a Lead for the Discovery of the First Selective Ligand for Kainate Receptor Subtype 5 (GluK5)” (J Med Chem, 2024).

For experiment [1], the target named is T1, Glutamate receptor 4 (Rattus norvegicus, UniProt P19493). As to the kind of experiment: Displacement of [3H]-AMPA from AMPA in rat synaptic membrane. Format: subcellular, Synaptosome.
Experiment [2] is described as follows: Displacement of [3H]-Kainic acid from KA in rat synaptic membrane. Format: subcellular, Synaptosome.
Experiment [3] in a line: Binding affinity to KA receptor in rat synaptosomes. Format: subcellular, Synaptosome.
For experiment [4], the target named is T1, Glutamate receptor 4. Kind of experiment: Binding affinity to AMPA receptor in rat synaptosomes. The format is subcellular, Synaptosome.
The target in experiment [5] is Glutamate receptor ionotropic, kainate 1 (Homo sapiens, UniProt P39086). Kind of experiment: Displacement of [3H](2S, 4R)-4-MeGlu (SYM-2081) from GluK1 (unknown origin). (In a radioligand displacement assay an active substance lowers the binding of a labelled ligand.)
For experiment [6], the target named is T2, Glutamate receptor ionotropic, kainate 2 (Homo sapiens, UniProt Q13002). As to the kind of experiment: Displacement of [3H](2S, 4R)-4-MeGlu (SYM-2081) from GluK2 (unknown origin).
In another experiment the test system is Hippocampus. Kind of experiment: Reduction in CA1 spike amplitude in Wistar rat hippocampal slices after 20 mins of toxin administration. The format is functional, tissue-based.
Experiment [7] addresses Glutamate receptor 4 (Rattus norvegicus) (UniProt P19493). Kind of experiment: Displacement of [3H]-AMPA from AMPA in rat cortical synaptosomes assessed as remaining activity at 10 uM incubated for 30 mins by TopCount microplate scintillation counting method relative to control. Format: subcellular. As to conditions: Cortex, Synaptosome.
Experiment [8] can be described thus: Displacement of [3H]-KA from KA in rat cortical synaptosomes incubated for 60 mins by TopCount microplate scintillation counting method. The format is subcellular, Cortex, Synaptosome.
The target in experiment [9] is Glutamate NMDA receptor (Rattus norvegicus) (UniProt P35439+Q00959+Q00960+Q00961+Q62645+Q8VHN2+Q9R1M7). Kind of experiment: Displacement of [3H]CGP39653 from NMDA receptor in rat cortical synaptosomes assessed as remaining activity at 10 uM incubated for 60 mins by Topcount microplate scintillation counting method relative to control. The format is subcellular. The following applies: Cortex, Synaptosome.

The target of experiment [10] is Glutamate receptor ionotropic, kainate 1 (Rattus norvegicus, UniProt P22756). As to the kind of experiment: Displacement of [3H]-NF608 from rat GluK1.
In experiment [11] the target is Glutamate receptor ionotropic, kainate 2 (Rattus norvegicus, UniProt P42260). As to the kind of experiment: Displacement of [3H]-KA from rat GluK2.
In experiment [12] the target is Glutamate receptor ionotropic, kainate 3 (Rattus norvegicus, UniProt P42264). Kind of experiment: Displacement of [3H]-KA from rat GluK3.
Experiment [13] addresses T3, Glutamate receptor ionotropic, kainate 5 (Mus musculus, UniProt Q61626).
T3 sequence (Q61626 whole entry): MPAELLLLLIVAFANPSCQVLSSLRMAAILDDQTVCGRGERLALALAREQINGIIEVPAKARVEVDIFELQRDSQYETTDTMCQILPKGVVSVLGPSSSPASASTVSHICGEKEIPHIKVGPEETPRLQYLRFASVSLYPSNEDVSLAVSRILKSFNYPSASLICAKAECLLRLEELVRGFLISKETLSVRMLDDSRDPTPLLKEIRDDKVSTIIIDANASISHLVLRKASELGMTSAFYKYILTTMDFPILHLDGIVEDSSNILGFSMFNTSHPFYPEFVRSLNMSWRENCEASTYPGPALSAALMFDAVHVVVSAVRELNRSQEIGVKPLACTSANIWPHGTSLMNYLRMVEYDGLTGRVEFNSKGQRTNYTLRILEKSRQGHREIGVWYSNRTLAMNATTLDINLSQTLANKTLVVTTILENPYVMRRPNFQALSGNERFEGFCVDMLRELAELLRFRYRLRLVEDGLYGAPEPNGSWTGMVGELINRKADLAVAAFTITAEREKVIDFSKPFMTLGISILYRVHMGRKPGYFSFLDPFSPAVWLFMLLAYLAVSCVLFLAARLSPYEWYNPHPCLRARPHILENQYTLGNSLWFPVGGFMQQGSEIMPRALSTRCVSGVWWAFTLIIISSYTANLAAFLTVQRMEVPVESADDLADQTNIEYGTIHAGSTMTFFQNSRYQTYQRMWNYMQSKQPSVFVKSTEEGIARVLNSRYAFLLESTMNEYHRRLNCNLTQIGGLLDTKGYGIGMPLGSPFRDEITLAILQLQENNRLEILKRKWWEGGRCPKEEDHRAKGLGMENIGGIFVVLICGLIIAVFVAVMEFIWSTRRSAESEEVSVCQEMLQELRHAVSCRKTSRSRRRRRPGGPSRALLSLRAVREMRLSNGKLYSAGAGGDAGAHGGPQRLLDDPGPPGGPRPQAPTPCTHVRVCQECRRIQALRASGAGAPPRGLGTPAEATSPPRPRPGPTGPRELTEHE
Kind of experiment: Displacement of [3H]-kainate from mouse GluK5 expressed in Sf9 cell membrane incubated for 2 hrs by scintillation counting method. Format: cell membranes.

The nature of experiment [14]: Selectivity ratio of Ki for displacement of [3H]-NF608 from rat GluK1 to Ki for displacement of [3H]-kainate from mouse GluK5.
Experiment [15] in a line: Selectivity ratio of Ki for displacement of [3H]-KA from rat GluK2 to Ki for displacement of [3H]-kainate from mouse GluK5.
Experiment [16] in a line: Selectivity ratio of Ki for displacement of [3H]-KA from rat GluK3 to Ki for displacement of [3H]-kainate from mouse GluK5.
The target in experiment [17] is Glutamate receptor ionotropic, kainate 1 (Rattus norvegicus) (UniProt P22756). Kind of experiment: Displacement of [3H]-NF608 from rat GluK1 assessed as percent of radioligand binding at 10 uM relative to control.
Experiment [18] deals with T1, Glutamate receptor 4. Kind of experiment: Displacement of [3H]-AMPA from AMPA in rat cortical synaptosomes incubated for 30 mins by TopCount microplate scintillation counting method. Format: subcellular, Cortex, Synaptosome.
For a further experiment, the target named is Glutamate NMDA receptor. As to the kind of experiment: Displacement of [3H]CGP39653 from NMDA receptor in rat cortical synaptosomes incubated for 60 mins by Topcount microplate scintillation counting method. Format: subcellular, Cortex, Synaptosome.
Experiment [19] has as its system Neuron. Kind of experiment: Agonist activity at GluK2/K5 in mouse hippocampal neurons assessed as change in holding current at 10 uM by electrophysiology. The format is cell-based. The following applies: filed as agonist.
Experiment [20] addresses T1, Glutamate receptor 4. As to the kind of experiment: Displacement of [3H]-AMPA from AMPA in rat brain membrane preincubated for 15 mins followed by [3H]-AMPA addition and measured after 40 mins by scintillation counting method. The format is cell membranes.
The nature of experiment [21]: Displacement of [3H]-Kainic acid from KA in rat brain membrane preincubated for 15 mins followed by [3H]-Kainic acid addition and measured after 1 hr by scintillation counting method. The format is cell membranes.
Experiment [22] concerns the target T4, Ionotropic glutamate receptor kainate 2/5 (Homo sapiens) (UniProt Q16478+Q13002). As to the kind of experiment: Agonist activity at GluK2/K5 (unknown origin) expressed in HEK293T cells at 10 uM by electrophysiology. The format is cell-based.
In experiment [23] the target is T4, Ionotropic glutamate receptor kainate 2/5 (Homo sapiens). As to the kind of experiment: Antagonist activity at GluK2/K5 (unknown origin) expressed in HEK293T cells preincubated with compound followed by L-Glu stimulation by electrophysiology. The format is cell-based.
In experiment [24] the test system is Neuron. Kind of experiment: Agonist activity at GluK2/K5 in mouse hippocampal neurons assessed as change in holding current at 100 uM by electrophysiology. Format: cell-based. The following applies: filed as agonist.
In experiment [25] the target is T2, Glutamate receptor ionotropic, kainate 2. As to the kind of experiment: Displacement of [3H]-kainic acid from GluR6 (unknown origin) expressed in Sf9 cells membrane. Format: cell membranes, Cell membrane.

Activity calls are given as the source filed them. No cut-off for these calls is given here.

What is called IC50 is the concentration that gives 50% inhibition. Usually Ki stands for the dissociation constant of the complex between target and ligand, obtained from inhibition or displacement. The low end stands for a stronger hold on the target, the high end for a looser hold on the target. For orientation: EC50 means the concentration that produces a half-maximal response. Higher therefore signals weaker potency.

Glutamate receptor ionotropic, kainate 3, sequence (P42264 whole entry): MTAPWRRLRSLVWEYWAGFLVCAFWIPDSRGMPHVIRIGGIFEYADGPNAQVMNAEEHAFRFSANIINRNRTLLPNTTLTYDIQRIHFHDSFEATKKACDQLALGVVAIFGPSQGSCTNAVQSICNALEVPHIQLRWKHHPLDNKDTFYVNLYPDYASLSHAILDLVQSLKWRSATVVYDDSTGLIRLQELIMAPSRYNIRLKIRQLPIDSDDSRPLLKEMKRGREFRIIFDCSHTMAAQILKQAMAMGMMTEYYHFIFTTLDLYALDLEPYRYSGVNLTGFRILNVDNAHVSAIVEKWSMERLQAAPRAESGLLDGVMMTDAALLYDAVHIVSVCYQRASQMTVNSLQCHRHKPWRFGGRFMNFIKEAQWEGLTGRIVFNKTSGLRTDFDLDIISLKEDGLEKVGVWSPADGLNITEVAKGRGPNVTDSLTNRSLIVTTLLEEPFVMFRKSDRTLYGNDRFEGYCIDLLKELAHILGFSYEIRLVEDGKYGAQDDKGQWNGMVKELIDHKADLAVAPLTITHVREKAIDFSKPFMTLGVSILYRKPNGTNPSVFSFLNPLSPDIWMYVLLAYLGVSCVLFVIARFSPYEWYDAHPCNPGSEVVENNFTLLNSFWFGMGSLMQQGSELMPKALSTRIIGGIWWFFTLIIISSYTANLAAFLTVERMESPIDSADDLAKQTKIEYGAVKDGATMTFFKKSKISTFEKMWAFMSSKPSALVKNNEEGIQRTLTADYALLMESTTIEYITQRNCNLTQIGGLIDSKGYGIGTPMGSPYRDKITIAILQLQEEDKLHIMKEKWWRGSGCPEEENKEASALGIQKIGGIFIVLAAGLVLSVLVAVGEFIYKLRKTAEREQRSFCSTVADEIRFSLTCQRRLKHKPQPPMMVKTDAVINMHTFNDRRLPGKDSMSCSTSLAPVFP
Glutamate receptor ionotropic, kainate 1 (Rattus norvegicus, UniProt P22756), sequence (P22756 whole entry): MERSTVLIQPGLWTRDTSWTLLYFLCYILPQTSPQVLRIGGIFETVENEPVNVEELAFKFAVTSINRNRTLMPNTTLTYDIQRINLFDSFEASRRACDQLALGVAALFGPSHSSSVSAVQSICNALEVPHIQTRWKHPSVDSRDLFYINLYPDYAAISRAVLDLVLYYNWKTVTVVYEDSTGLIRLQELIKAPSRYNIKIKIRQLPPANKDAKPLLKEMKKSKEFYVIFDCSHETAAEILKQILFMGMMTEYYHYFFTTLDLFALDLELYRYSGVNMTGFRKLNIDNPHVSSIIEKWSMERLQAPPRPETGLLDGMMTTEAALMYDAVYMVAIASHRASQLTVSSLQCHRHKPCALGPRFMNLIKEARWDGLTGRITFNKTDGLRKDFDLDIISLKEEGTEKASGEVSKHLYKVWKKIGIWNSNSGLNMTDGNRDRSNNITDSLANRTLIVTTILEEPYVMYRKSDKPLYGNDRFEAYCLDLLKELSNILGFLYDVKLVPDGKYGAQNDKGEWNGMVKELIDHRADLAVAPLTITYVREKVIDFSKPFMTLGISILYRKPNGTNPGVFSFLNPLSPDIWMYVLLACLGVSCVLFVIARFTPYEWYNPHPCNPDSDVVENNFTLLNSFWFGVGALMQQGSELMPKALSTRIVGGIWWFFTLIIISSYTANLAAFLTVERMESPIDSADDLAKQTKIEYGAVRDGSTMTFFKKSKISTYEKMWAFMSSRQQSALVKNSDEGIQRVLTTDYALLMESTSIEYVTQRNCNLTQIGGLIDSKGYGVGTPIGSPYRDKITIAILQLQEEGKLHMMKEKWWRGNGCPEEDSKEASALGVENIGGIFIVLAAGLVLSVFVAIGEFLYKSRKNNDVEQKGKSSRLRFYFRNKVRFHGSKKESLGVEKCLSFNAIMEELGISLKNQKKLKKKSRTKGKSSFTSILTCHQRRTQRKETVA
Glutamate receptor ionotropic, kainate 2 (Rattus norvegicus, UniProt P42260), sequence (P42260 whole entry): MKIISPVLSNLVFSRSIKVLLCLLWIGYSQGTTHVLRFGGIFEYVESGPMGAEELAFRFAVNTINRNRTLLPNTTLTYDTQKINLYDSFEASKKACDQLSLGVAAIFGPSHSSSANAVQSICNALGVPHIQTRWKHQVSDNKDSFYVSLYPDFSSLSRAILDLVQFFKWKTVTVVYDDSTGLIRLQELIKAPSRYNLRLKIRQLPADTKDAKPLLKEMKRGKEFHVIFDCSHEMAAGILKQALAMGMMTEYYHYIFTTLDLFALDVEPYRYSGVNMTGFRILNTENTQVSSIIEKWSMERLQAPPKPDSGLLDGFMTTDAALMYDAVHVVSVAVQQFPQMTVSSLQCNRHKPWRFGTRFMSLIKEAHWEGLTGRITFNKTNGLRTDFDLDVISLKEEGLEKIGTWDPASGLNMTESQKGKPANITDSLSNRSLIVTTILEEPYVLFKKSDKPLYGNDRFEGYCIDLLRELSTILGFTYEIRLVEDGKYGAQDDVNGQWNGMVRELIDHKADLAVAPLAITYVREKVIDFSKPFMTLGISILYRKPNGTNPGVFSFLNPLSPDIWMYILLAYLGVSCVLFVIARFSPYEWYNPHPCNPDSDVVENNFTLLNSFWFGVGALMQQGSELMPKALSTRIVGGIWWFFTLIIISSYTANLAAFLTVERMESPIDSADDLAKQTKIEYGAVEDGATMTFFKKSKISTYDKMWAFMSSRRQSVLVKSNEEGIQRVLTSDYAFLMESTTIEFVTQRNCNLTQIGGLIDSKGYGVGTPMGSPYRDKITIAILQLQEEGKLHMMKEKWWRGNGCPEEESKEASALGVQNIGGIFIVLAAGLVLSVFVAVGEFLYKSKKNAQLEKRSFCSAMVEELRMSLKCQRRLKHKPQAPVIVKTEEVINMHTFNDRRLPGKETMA
T1 sequence (P19493 whole entry): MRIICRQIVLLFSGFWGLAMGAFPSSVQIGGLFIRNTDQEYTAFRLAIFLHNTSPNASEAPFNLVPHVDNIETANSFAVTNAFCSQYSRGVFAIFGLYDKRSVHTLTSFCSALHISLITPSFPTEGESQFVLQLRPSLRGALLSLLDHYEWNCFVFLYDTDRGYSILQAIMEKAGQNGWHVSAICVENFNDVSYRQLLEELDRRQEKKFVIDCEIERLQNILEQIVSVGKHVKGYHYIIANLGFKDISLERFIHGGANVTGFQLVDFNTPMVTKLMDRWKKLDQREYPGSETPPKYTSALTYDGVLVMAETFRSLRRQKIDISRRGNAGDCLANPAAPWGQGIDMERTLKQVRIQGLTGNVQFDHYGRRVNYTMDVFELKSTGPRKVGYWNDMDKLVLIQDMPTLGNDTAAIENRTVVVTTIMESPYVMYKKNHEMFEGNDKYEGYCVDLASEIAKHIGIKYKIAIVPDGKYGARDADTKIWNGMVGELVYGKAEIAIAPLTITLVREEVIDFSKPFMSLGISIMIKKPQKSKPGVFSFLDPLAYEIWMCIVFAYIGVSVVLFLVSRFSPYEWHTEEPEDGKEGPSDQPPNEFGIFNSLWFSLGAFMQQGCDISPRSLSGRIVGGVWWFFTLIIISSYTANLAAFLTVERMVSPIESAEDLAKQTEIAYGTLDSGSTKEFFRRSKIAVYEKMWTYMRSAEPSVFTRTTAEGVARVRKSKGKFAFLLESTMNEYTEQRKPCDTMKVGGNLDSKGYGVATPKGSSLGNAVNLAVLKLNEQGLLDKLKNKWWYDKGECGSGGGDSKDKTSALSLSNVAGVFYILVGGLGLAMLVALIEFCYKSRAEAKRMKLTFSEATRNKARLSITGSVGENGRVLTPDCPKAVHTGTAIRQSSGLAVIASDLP
Glutamate receptor 4 (Rattus norvegicus), sequence (P19493 whole entry): as above
Glutamate receptor ionotropic, kainate 1 (Rattus norvegicus), sequence (P22756 whole entry): as the sequence (P22756 whole entry) above
T2 sequence (Q13002 whole entry): as the sequence (P42260 whole entry) above, with S5F, V7I, L11P, S14R, S16T, I17V, V19L, V494A counted along it
Glutamate receptor ionotropic, kainate 1 (Homo sapiens, UniProt P39086), sequence (P39086 whole entry): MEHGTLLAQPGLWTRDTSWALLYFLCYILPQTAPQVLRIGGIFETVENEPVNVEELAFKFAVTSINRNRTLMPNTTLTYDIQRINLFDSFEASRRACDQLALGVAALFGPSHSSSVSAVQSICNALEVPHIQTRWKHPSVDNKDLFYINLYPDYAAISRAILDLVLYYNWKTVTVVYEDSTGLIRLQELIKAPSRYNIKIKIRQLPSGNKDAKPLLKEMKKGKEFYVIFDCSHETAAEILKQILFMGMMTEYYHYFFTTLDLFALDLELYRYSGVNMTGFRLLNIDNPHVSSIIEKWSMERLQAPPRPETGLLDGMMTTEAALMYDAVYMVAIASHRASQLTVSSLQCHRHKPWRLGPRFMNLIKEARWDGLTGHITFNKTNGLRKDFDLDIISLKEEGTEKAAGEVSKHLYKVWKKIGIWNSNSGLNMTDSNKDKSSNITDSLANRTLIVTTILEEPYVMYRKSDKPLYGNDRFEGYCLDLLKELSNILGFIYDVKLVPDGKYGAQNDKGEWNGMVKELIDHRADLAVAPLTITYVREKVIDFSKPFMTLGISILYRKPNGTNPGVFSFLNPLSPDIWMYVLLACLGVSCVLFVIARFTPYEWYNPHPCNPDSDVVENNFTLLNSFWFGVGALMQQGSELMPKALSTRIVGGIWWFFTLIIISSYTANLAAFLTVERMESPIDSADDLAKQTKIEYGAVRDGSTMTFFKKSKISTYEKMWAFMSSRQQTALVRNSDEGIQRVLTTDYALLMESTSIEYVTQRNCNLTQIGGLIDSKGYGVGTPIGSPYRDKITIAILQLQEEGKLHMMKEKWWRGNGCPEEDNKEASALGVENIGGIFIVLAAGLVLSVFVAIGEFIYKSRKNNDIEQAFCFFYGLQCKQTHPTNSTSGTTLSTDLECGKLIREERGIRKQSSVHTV

As to `C/C(=C/C=C/[C@@H](C)C(=O)O)[C@H]1CN[C@H](C(=O)O)[C@H]1CC(=O)O` [DOMOIC ACID], the IC50 on Glutamate receptor 4 [1] came to 0.47 µM; in [2], 0.004 µM; in [3], 0.015 µM; on Glutamate receptor 4 [4] it was 9 µM. Moreover, the values for the Ki in experiment [5] and in experiment [6] were 0.00111 µM and 0.00604 µM, respectively. The molecule also showed an EC50 in the experiment on Hippocampus of 0.228 µM.

Consider `CC(CCc1cnnn1[C@H]1CN[C@H](C(=O)O)[C@H]1CC(=O)O)C(=O)O` (stereo not given in full), for which the results for the Activity in experiment [7] and in [9] were 73% and 102%, respectively. This molecule also showed an IC50 in experiment [8] of 1.73 µM. Also, the Ki in experiment [10] came out at 11.7 µM; in experiment [11], 8.66 µM; in [12], 5.9 µM; in [13], 0.42 µM. Besides, the Ratio Ki in [14], in experiment [15] and in experiment [16] was 14 each time.

For `O=C(O)C[C@@H]1[C@@H](C(=O)O)NC[C@@H]1n1nncc1-c1ccccc1`, the Activity in experiment [7] was 80%; in [9], 101%; in experiment [17] it was 93%. Besides, the concentration for half-maximal inhibition (IC50) in experiment [8] turned out to be 5.1 µM. Further, the Ki was 36 µM in experiment [11], 21.1 µM in [12] and 0.499 µM in [13]. Further, the Ratio Ki in [14], in experiment [15] and in experiment [16] was above 40 throughout.

In the case of `O=C(O)CCc1cn([C@H]2CN[C@H](C(=O)O)[C@H]2CC(=O)O)nn1`, the IC50 (on Glutamate receptor 4 [18]; in [8]) was above 100 µM throughout. Further, the Ki (at Glutamate NMDA receptor; in experiment [10]; in experiment [11]; in [12]) was above 100 µM throughout.

In the case of `C/C(=C\C=C/[C@@H](C)C(=O)O)[C@H]1CN[C@H](C(=O)O)[C@H]1CC(=O)O`, the Activity in the experiment on Neuron [19] amounted to 2940 pA. For the same molecule, the IC50 came out at 32 µM on Glutamate receptor 4 [20] and 1.4 µM in experiment [21].

As to `O=C(O)C[C@@H]1[C@@H](C(=O)O)NC[C@@H]1n1nncc1-c1ccc2cc(O)ccc2c1`, the Activity in [7] amounted to 90%; in experiment [9] it was 99%; in experiment [17], 90%; in the experiment on Neuron [19], 56 pA; with Neuron [24], 148 pA. The IC50 in [8] came to 4.4 µM. For the same molecule, the Ki in [11] is 70 µM; in [12] it was 17.9 µM; in [13], 0.432 µM. Also, the result in experiment [22] and in experiment [23] was inactive.

On to `O=C(O)C[C@@H]1[C@@H](C(=O)O)NC[C@@H]1n1ccnn1`, for which the IC50 at Glutamate receptor 4 [18] was determined as 9.5 µM; in experiment [8], 1.3 µM. Further, the Ki on Glutamate NMDA receptor was above 100 µM; in experiment [10], 3.3 µM; in experiment [11] it was 2.6 µM; in experiment [12], 0.28 µM.

Take `C/C(=C/C/C=C(\C)C(=O)O)[C@H]1CN[C@H](C(=O)O)[C@H]1CC(=O)O`: the Ki in experiment [25] was found to be 0.13 µM. The molecule further came in with an EC50 in the experiment on Hippocampus of 0.887 µM.
